Source: US20240368191A1, “HETEROCYCLIC COMPOUNDS AND USES THEREOF” (Kumquat Biosciences Inc., priority 2021, published 2024)

Assays:
in vitro = details: microsomes, pH 7.4
[1] = molecular target: T1, KRAS G12D 1-169 (His-tagged, GDP-loaded) (Homo sapiens, UniProt P01116, G12D); assay: Covalent modification of KRAS protein by intact-protein LC-MS; assay type: binding; details: comparable or same conditions as K-Ras G12S
T1 construct: His -tagged GDP-loaded G12D 1-169; made in house; host or cells: E. coli, e.g. BL21 (DE3)
T1 sequence (P01116 1-169 isoform P01116-2 G12D): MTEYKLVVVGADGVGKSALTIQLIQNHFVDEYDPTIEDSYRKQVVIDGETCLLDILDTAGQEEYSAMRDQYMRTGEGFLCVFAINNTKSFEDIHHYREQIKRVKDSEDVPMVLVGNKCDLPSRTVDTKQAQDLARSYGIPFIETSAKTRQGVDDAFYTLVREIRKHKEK
Method in brief: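 Percent modification is derived from deconvoluted intact-protein LC-ESI-MS peak intensities of adducted versus unmodified KRAS. GDP-loaded His-tagged KRAS 1-169 (~2 μM, HEPES buffer at physiological conditions) was exposed to compound for 24 hrs at room temperature, then quenched with formic acid before C4 reversed-phase separation.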

[2] = Metabolic (microsomal) stability assay; details: pooled liver microsomes, pH 7.4

Row | Structure (SMILES) | half-life at 0.5 μM (in vitro) [min] | covalent labeling of K-Ras G12D [1] | half-life at 0.5 μM [2] [min]
1 | N#Cc1c(N)sc2c(F)ccc(-c3c(Cl)cc4c(N5CC6CCC(C5)N6C(=O)n5ccnc5)nc(OC[C@@]56CCCN5C[C@H](F)C6)nc4c3F)c12 [Compound A105, 4-(4-(8-(1H-imidazole-1-carbonyl)-3,8-diazabicyclo-[3.2.1]octan-3-yl)-6-chloro-8-fluoro-2-(((2R,7aS)-2-fluoro-tetrahydro-1H-pyrrolizin-7a(5H)-yl)methoxy)quinazolin-7-yl)-2-amino-7-fluorobenzo-[b]thiophene-3-carbonitrile] | > 10 | – | –
2 | Nc1nc2c(-c3c(Cl)cc4c(N5CC6CCC(C5)N6C(=O)n5cncn5)nc(OC[C@@]56CCCN5C[C@H](F)C6)nc4c3F)ccc(F)c2s1 [Compound A111, (3-(7-(2-amino-7-fluorobenzo-[d]thiazol-4-yl)-6-chloro-8-fluoro-2-(((2R,7aS)-2-fluoro-tetrahydro-1H-pyrrolizin-7a(5H)-yl)methoxy)quinazolin-4-yl)-3,8-diazabicyclo[3.2.1]-octan-8-yl)(1H-1,2,4-triazol-1-yl)methanone] | > 10 | – | –
3 | N#Cc1c(N)sc2c(F)ccc(-c3c(Cl)cc4c(N5CC6CCC(C5)N6C(=O)n5cc(C(F)(F)F)cn5)nc(OC[C@@]56CCCN5C[C@H](F)C6)nc4c3F)c12 [Compound A122, 2-amino-4-(6-chloro-8-fluoro-2-(((2R,7aS)-2-fluorotetrahydro-1H-pyrrolizin-7a(5H)-yl)meth-oxy)-4-(8-(4-(trifluoromethyl)-1H-pyrazole-1-carbonyl)-3,8-diazabicyclo[3.2.1]octan-3-yl)-quinazolin-7-yl)-7-fluorobenzo-[b]thiophene-3-carbonitrile] | > 10 | – | –
4 | C[C@H](Oc1nc(N2CCCCC3(CN(C(=O)n4cncn4)C3)C2)c2cc(Cl)c(-c3ccc(F)c4sc(N)c(C#N)c34)c(F)c2n1)[C@@H]1CCCN1C [Compound A219, 4-(4-(2-(1H-1,2,4-triazole-1-carbonyl)-2,6-diazaspiro[3.6]-decan-6-yl)-6-chloro-8-fluoro-2-((S)-1-((S)-1-methylpyrrol-idin-2-yl)ethoxy)quinazolin-7-yl)-2-amino-7-fluorobenzo-[b]thiophene-3-carbonitrile] | – | essentially no detectable labeling | > 10
5 | Nc1nc2c(-c3c(Cl)cc4c(N5CCOC6(CCN(C(=O)n7cncn7)C6)C5)nc(OC[C@@]56CCCN5C[C@H](F)C6)nc4c3F)ccc(F)c2s1 (stereo partly drawn) [Compound A221, (9-(7-(2-amino-7-fluorobenzo-[d]thiazol-4-yl)-6-chloro-8-fluoro-2-(((2R,7aS)-2-fluoro-tetrahydro-1H-pyrrolizin-7a(5H)-yl)methoxy)quinazolin-4-yl)-6-oxa-2,9-diazaspiro[4.5]-decan-2-yl)(1H-1,2,4-triazol-1-yl)methanone] | – | essentially no detectable labeling | > 10
6 | CN(C)C1CN(c2nc(N3CCOC4(CN(C(=O)n5cncn5)C4)C3)c3cc(Cl)c(-c4ccc(F)c5sc(N)c(C#N)c45)c(F)c3n2)C1 [Compound A256, 4-(4-(2-(1H-1,2,4-triazole-1-carbonyl)-5-oxa-2,8-diazaspiro[3.5]nonan-8-yl)-6-chloro-2-(3-(dimethylamino)azetidin-1-yl)-8-fluoroquinazolin-7-yl)-2-amino-7-fluorobenzo[b]thiophene-3-carbonitrile] | – | essentially no detectable labeling | > 10
7 | CC1(C)CN(c2nc(OC[C@@]34CCCN3C[C@H](F)C4)nc3c(F)c(-c4ccc(F)c5sc(N)c(C#N)c45)c(Cl)cc23)CC2(CN(C(=O)n3cncn3)C2)O1 [Compound A296, 2-amino-4-(6-chloro-4-(6,6-dimethyl-2-(1H-1,2,4-triazole-1-carbonyl)-5-oxa-2,8-diaza-spiro[3.5]nonan-8-yl)-8-fluoro-2-(((2R,7aS)-2-fluorotetrahydro-1H-pyrrolizin-7a(5H)-yl)meth-oxy)quinazolin-7-yl)-7-fluoro-benzo[b]thiophene-3-carbonitrile] | – | essentially no detectable labeling | > 10
